Biological target: Bcl-2 protein (Homo sapiens (Human), UniProt P10415)
Experiment: Bcl-2 binding TR-FRET (Time-Resolved Fluorescence-Resonance-Energy-Transfer) assay
Details: inhibition constant for binding to Bcl-2 protein
Text: The smaller the Ki value, the greater is the binding affinity.

Bcl-2 protein, sequence (P10415 whole entry): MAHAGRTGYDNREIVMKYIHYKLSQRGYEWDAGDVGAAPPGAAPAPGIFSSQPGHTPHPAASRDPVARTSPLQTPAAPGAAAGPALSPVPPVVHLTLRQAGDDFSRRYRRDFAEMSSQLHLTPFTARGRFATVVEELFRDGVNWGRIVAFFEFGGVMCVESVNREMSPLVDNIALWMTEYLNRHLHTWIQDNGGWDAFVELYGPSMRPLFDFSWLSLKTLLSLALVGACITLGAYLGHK

Row | Compound | Ki [nM]
1 | CC1(C)CCC(CN2CCN(c3ccc(C(=O)NS(=O)(=O)c4ccc(NCC5CCN(C6CC6)CC5)c([N+](=O)[O-])c4)c(Oc4cnc5[nH]ccc5c4)c3)CC2)=C(c2ccc(Cl)cc2)C1 [Compound 164, 4-(4-{[2-(4-chlorophenyl)-4,4-dimethylcyclohex-1-en-1-yl]methyl}piperazin-1-yl)-N-[(4-{[(1-cyclopropylpiperidin-4-yl)methyl]amino}-3-nitrophenyl)sulfonyl]-2-(1H-pyrrolo[2,3-b]pyridin-5-yloxy)benzamide] | < 0.01
2 | CC1(C)CCC(CN2CCN(c3ccc(C(=O)NS(=O)(=O)c4ccc(NCC5CN(CCF)CCO5)c([N+](=O)[O-])c4)c(Oc4cnc5[nH]ccc5c4)c3)CC2)=C(c2ccc(Cl)cc2)C1 (stereo not shown) [Compound 165, 4-(4-{[2-(4-chlorophenyl)-4,4-dimethylcyclohex-1-en-1-yl]methyl}piperazin-1-yl)-N-{[4-({[4-(2-fluoroethyl)morpholin-2-yl]methyl}amino)-3-nitrophenyl]sulfonyl}-2-(1H-pyrrolo[2,3-b]pyridin-5-yloxy)benzamide] | < 0.01
3 | CC1(C)CCC(CN2CCN(c3ccc(C(=O)NS(=O)(=O)c4ccc(NCC5CN(CC(F)F)CCO5)c([N+](=O)[O-])c4)c(Oc4cnc5[nH]ccc5c4)c3)CC2)=C(c2ccc(Cl)cc2)C1 (stereo not shown) [Compound 166, 4-(4-{[2-(4-chlorophenyl)-4,4-dimethylcyclohex-1-en-1-yl]methyl}piperazin-1-yl)-N-{[4-({[4-(2,2-difluoroethyl)morpholin-2-yl]methyl}amino)-3-nitrophenyl]sulfonyl}-2-(1H-pyrrolo[2,3-b]pyridin-5-yloxy)benzamide] | < 0.01
4 | CC1(C)CCC(CN2CCN(c3ccc(C(=O)NS(=O)(=O)c4ccc(OCC5(F)CCN(C6COC6)CC5)c([N+](=O)[O-])c4)c(Oc4cnc5[nH]ccc5c4)c3)CC2)=C(c2ccc(Cl)cc2)C1 [Compound 167, 4-(4-{[2-(4-chlorophenyl)-4,4-dimethylcyclohex-1-en-1-yl]methyl}piperazin-1-yl)-N-({4-[(4-fluoro-1-oxetan-3-ylpiperidin-4-yl)methoxy]-3-nitrophenyl}sulfonyl)-2-(1H-pyrrolo[2,3-b]pyridin-5-yloxy)benzamide] | < 0.01
5 | CC1(C)CCC(CN2CCN(c3ccc(C(=O)NS(=O)(=O)c4ccc(OC[C@@H]5CC(F)(F)CN5C5COC5)c([N+](=O)[O-])c4)c(Oc4cnc5[nH]ccc5c4)c3)CC2)=C(c2ccc(Cl)cc2)C1 [Compound 168, 4-(4-{[2-(4-chlorophenyl)-4,4-dimethylcyclohex-1-en-1-yl]methyl}piperazin-1-yl)-N-[(4-{[(2S)-4,4-difluoro-1-oxetan-3-ylpyrrolidin-2-yl]methoxy}-3-nitrophenyl)sulfonyl]-2-(1H-pyrrolo[2,3-b]pyridin-5-yloxy)benzamide] | < 0.01
6 | CC1(C)CCC(CN2CCN(c3ccc(C(=O)NS(=O)(=O)c4ccc(NCC5COCCN5C5CCOC5)c([N+](=O)[O-])c4)c(Oc4cnc5[nH]ccc5c4)c3)CC2)=C(c2ccc(Cl)cc2)C1 (stereo not shown) [Compound 171, 4-(4-{[2-(4-chlorophenyl)-4,4-dimethylcyclohex-1-en-1-yl]methyl}piperazin-1-yl)-N-[(3-nitro-4-{[(4-tetrahydrofuran-3-ylmorpholin-3-yl)methyl]amino}phenyl)sulfonyl]-2-(1H-pyrrolo[2,3-b]pyridin-5-yloxy)benzamide] | < 0.01
7 | CC1(C)CCC(CN2CCN(c3ccc(C(=O)NS(=O)(=O)c4ccc(NCC5CCN(C(CF)CF)CC5)c([N+](=O)[O-])c4)c(Oc4cnc5[nH]ccc5c4)c3)CC2)=C(c2ccc(Cl)cc2)C1 [Compound 172, 4-(4-{[2-(4-chlorophenyl)-4,4-dimethylcyclohex-1-en-1-yl]methyl}piperazin-1-yl)-N-({4-[({1-[2-fluoro-1-(fluoromethyl)ethyl]piperidin-4-yl}methyl)amino]-3-nitrophenyl}sulfonyl)-2-(1H-pyrrolo[2,3-b]pyridin-5-yloxy)benzamide] | < 0.01

Reference: patent US10213433B2 (AbbVie Inc., priority 2010, dated 2019)
